Laboratory results: patent US8263777B2, “Aminopyrazole triazolothiadiazole inhibitor of c-Met protein kinase” (Vertex Pharmaceuticals Incorporated, priority 2010, dated 2012)
Where “and” joins values, the source holds several entries; their conditions need not be identical. Identical values can stand only once.

Assays:
c-Met [1] = biological target: T1, c-Met (Homo sapiens, UniProt P08581); assay: c-Met kinase inhibition assay (radiometric, 33P-ATP, polyE4Y); format: biochemical; conditions: 0.5 nM c-Met, 35 μM ATP, competitive tight-binding fit
T1 sequence (P08581 25-1390): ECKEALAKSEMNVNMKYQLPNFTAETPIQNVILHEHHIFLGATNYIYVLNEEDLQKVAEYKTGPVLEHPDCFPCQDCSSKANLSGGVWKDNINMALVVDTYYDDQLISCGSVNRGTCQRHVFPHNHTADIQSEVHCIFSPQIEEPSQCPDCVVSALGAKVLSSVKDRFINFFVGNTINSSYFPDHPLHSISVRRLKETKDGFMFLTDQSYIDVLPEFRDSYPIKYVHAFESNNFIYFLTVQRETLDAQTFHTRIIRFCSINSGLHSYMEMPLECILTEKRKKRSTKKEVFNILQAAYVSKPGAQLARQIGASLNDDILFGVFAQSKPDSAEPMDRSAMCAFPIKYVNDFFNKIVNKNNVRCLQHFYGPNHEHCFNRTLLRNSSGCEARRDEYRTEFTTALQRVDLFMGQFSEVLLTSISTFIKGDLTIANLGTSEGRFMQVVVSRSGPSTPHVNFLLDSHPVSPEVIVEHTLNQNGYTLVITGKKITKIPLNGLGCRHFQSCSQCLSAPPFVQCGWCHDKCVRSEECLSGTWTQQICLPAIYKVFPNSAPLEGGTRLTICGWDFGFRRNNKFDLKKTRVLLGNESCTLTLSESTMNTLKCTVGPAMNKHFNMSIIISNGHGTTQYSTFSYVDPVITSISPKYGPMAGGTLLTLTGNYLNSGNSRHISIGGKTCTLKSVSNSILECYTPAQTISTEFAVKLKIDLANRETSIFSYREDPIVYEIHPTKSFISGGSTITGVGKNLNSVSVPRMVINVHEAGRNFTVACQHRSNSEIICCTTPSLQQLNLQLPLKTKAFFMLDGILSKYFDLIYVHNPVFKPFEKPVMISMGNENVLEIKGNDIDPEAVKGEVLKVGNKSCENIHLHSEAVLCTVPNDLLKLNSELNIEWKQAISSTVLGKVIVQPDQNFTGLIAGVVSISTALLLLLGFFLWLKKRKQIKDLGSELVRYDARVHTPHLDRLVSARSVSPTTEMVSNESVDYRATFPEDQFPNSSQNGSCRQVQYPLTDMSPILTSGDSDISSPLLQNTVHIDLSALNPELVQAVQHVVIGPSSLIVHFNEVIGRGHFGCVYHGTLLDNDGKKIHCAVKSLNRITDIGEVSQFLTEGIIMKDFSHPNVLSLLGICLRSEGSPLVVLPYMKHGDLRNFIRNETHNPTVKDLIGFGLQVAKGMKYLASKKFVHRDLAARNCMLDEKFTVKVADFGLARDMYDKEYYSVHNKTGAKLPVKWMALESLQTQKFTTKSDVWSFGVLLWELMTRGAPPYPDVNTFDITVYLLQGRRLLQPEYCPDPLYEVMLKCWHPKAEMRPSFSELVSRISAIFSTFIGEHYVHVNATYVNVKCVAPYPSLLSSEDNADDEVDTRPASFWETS
Description: Compound 1 was screened for its ability to inhibit c-Met kinase using a standard radiometric assay. Briefly, in this kinase assay the transfer of the terminal ^33P-phosphate in ^33P-ATP to substrate polyE4Y is interrogated. The assay was carried out in 96-well plates to a final volume of 100 μL per well containing 0.5 nM c-Met, 100 mM HEPES (pH 7.5), 10 mM MgCl2, 25 mM NaCl, 0.01% BSA, 1 mM DTT, 0.5 mg/mL polyE4Y, and 35 μM ATP. Accordingly, Compound 1 was dissolved in DMSO to make a 10 mM initial stock solution. Serial dilutions in DMSO were then made to obtain the final solutions for the assay. A 1.5 μL aliquot of DMSO or inhibitor in DMSO was added to each well, followed by the addition of ^33P-ATP, and finally the addition of c-Met and polyE4Y (obtained from Sigma). After 20 min, the reaction was quenched with 50 μL of 30% trichloroacetic acid (TCA) containing 4 mM ATP. The reaction mixture was transferred to the 0.66 mm GF filter plates (Corning) and washed three times with 5% TCA. Following the addition of 50 μL of Ultimate Gold™ high efficiency scintillant (Packard Bioscience), the samples were counted in a Packard TopCount NXT Microplate Scintillation and Luminescence Counter (Packard BioScience). The Ki values were calculated using Microsoft Excel Solver macros to fit the data to the kinetic model for competitive tight-binding inhibition.

[2] = test system: SNU-5 gastric cancer cells; assay: Inhibition of tumor growth of subcutaneously implanted SNU-5 cells in SCID mice; format: in vivo; conditions: for SNU-5 tumor weight at study termination, Mean: Day 38, group mean; for SNU-5 tumor weight at study termination, Mean / SNU-5 tumor weight at study termination, individual animal: in mg (unit assumed); for SNU-5 tumor weight at study termination, individual animal: Day 38, one value per animal ID, listed as Compound 3; for percent tumor weight reduction vs vehicle control: P<0.002
Description: SNU-5 cells (CRL-5973, American Type Culture Collection, Manassas, Va.) were cultured in ISCOVE's Modified Dulbecco's Medium (IMDM) (Invitrogen, Carlsbad, Calif.) supplemented with 10% fetal bovine serum (FBS) (Hyclone, Logan, Utah), 100 units/mL of penicillin, […] of streptomycin (Invitrogen, Carlsbad, Calif.), and 2 mM L-glutamine. Cells were cultured for fewer than 4 passages prior to implantation. Female SCID mice (Fox Chase SCID, CB-17, mice weighing 17 to 19 g obtained from Charles River Laboratories, Wilmington, Mass.) were injected subcutaneously (s.c.) with 5×10^6 SNU-5 cells into the right dorsal axillary region on Day 0. Treatments were initiated on Day 25 when the average tumor volume reached approximately 358 mm^3.
Compound 1, formulated in a vehicle containing 30% (w/v) Propylene Glycol and 10% Solutol (Sigma-Aldrich, St Louis, Mo.) as a suspended homogenous form, was administered orally (p.o.) once daily (QD) at total daily doses of 3, 10, and 30 mg/kg/day for 14 days. Tumor volumes (calculated using the ellipsoid formula, (length×width^2)/2, where length and width represented the largest and smallest dimensions of the tumor, respectively) were recorded for two weeks after the initiation of treatment. The study was terminated 38 days after tumor implantation.

[3] = test system: A549 cells (A549HGF-lm1115); assay: Inhibition of tumor metastasis to the lungs, subcutaneous A549HGF tumors in SCID mice; format: in vivo; conditions: for Luminescence of homogenized lung tissue, Mean / Luminescence of homogenized lung tissue, individual animal: study termination; for Luminescence of homogenized lung tissue, Mean: group mean; for Luminescence of homogenized lung tissue, individual animal: one value per animal ID
Description: Compound 1 was investigated for its ability to inhibit the metastasis of subcutaneously implanted tumors to the lungs of severe combined immunodeficient (SCID) mice. Accordingly, A549 cells (A549HGF-lm1115, transfected with hepatocyte growth factor, luciferase, and green fluorescent protein) were cultured in RPMI1640 medium (Invitrogen, Carlsbad, Calif.) supplemented with 10% fetal bovine serum (FBS) (Hyclone, Logan, Utah), 100 units/mL of penicillin, […] of streptomycin (Invitrogen, Carlsbad, Calif.), and 2 mM L-glutamine for fewer than 4 passages prior to implantation. 3-(Difluoro(quinolin-6-yl)methyl)-N-(1-methyl-1H-pyrazol-4-yl)-[1,2,4]triazolo[3,4-b][1,3,4]thiadiazol-6-amine (Compound 1) was formulated in a vehicle containing 0.5% (w/v) methylcellulose (Sigma-Aldrich, St Louis, Mo.) and 0.1% (v/v) Tween 80™ as a dissolved homogenous form, which was prepared fresh each day and administered to mice via oral gavage at a dosing volume of 10 mL/kg.
Female SCID mice were injected subcutaneously (s.c.) with 5×10^6 A549HGF cells into the right dorsal axillary region on Day 0. Treatments were initiated on the same day by oral administration (p.o.) of Compound 1 once daily (QD) at total daily doses of 30 and 60 mg/kg/day for 22 days. Ectopic tumor measurements were recorded twice a week for 3 weeks after the initiation of treatment.
In order to evaluate the anti-metastatic potential of Compound 1, at the termination of the study all animal lung tissues were harvested and lysed by homogenization for ex vivo quantification via luciferase luminescence.

c-Met [4] = biological target: T1, c-Met; assay: Inhibition of c-Met activity in Snu5 gastric carcinoma cells (Snu5-AP1-Luc-Pest luciferase); format: cell-based; parameters: is a human gastric carcinoma known to overexpress c-Met, which is constitutively active; host or cells: Snu5 human gastric carcinoma cells transduced with a 6xAP1-luciferase-PEST reporter (Snu5-AP1-Luc-Pest); conditions: 6 hours, luciferase luminescence
From the text: Compound 1 was also screened for its ability to inhibit the Luciferase-induced signal in an engineered Snu5 cell line. Snu5 [obtained from American Type Culture Collection (Catalog number CRL-5973)] is a human gastric carcinoma known to overexpress c-Met, which is constitutively active. The cell line was transduced with the retrovirus, pCLPCX, which contains a genetic construct consisting of 6×AP1 promoter response elements and a luciferase gene having a C-terminal PEST sequence (proteolytic signal from mouse ornithine decarboxylase, which reduces the half-life of the luciferase). The constitutively active c-Met activates cellular pathways (principally MAP kinase), resulting in AP-1-induced transcription of luciferase-PEST and translation into the final product, the activity of which is quantifiable as a chemiluminescent readout upon the addition of luciferin (Steady-Glo from Promega.). Residual luminescence is strongly correlated to the inhibition of c-Met. A stable cell line was obtained by selecting the new cell line (Snu5-AP1-Luc-Pest) with puromycin. […] The Snu5-AP1-Luc-Pest cells were counted and diluted to 200,000-cells/mL solution. […] The plate was read on a 1450 Microbeta Liquid Scintillation and Luminescence Counter (Perkin-Elmer).

Cn1cc(Nc2nn3c(C(F)(F)c4ccc5ncccc5c4)nnc3s2)cn1 [Compound 1, 3-(difluoro(quinolin-6-yl)methyl)-N-(1-methyl-1H-pyrazol-4-yl)-[1,2,4]triazolo[3,4-b][1,3,4]thiadiazol-6-amine]
Ki (c-Met [1]): < 20 nM
SNU-5 tumor volume ([2]; 3 mg/kg/day p.o. QD, Day 25 (treatment start), mean ± standard error): 356.1 ± 24.5 mm^3
SNU-5 tumor volume ([2]; 3 mg/kg/day p.o. QD, Day 28, mean ± standard error): 432.6 ± 31.2 mm^3
SNU-5 tumor volume ([2]; 3 mg/kg/day p.o. QD, Day 31, mean ± standard error): 511.9 ± 36.3 mm^3
SNU-5 tumor volume ([2]; 3 mg/kg/day p.o. QD, Day 35, mean ± standard error): 587.8 ± 39.5 mm^3
SNU-5 tumor volume ([2]; 3 mg/kg/day p.o. QD, Day 38, mean ± standard error): 670.4 ± 46.2 mm^3
SNU-5 tumor weight at study termination, Mean ([2]; 3 mg/kg/day): 619.9
SNU-5 tumor weight at study termination, individual animal ([2]; 3 mg/kg/day): 619 and 505 and 525 and 485 and 605 and 655 and 851 and 770 and 405 and 790 and 938 and 508 and 368 and 679 and 596
percent tumor weight reduction vs vehicle control ([2]; 3 mg/kg/day): 34.5%
SNU-5 tumor volume ([2]; 10 mg/kg/day p.o. QD, Day 25 (treatment start), mean ± standard error): 358.0 ± 17.1 mm^3
SNU-5 tumor volume ([2]; 10 mg/kg/day p.o. QD, Day 28, mean ± standard error): 354.2 ± 21.7 mm^3
SNU-5 tumor volume ([2]; 10 mg/kg/day p.o. QD, Day 31, mean ± standard error): 381.8 ± 25.6 mm^3
SNU-5 tumor volume ([2]; 10 mg/kg/day p.o. QD, Day 35, mean ± standard error): 406.6 ± 23.4 mm^3
SNU-5 tumor volume ([2]; 10 mg/kg/day p.o. QD, Day 38, mean ± standard error): 453.9 ± 27.3 mm^3
SNU-5 tumor weight at study termination, Mean ([2]; 10 mg/kg/day): 385.7
SNU-5 tumor weight at study termination, individual animal ([2]; 10 mg/kg/day): 319 and 476 and 358 and 469 and 279 and 660 and 418 and 400 and 387 and 410 and 349 and 275 and 305 and 371 and 309
percent tumor weight reduction vs vehicle control ([2]; 10 mg/kg/day): 59.3%
SNU-5 tumor volume ([2]; 30 mg/kg/day p.o. QD, Day 25 (treatment start), mean ± standard error): 359.5 ± 35.1 mm^3
SNU-5 tumor volume ([2]; 30 mg/kg/day p.o. QD, Day 28, mean ± standard error): 281.3 ± 28.7 mm^3
SNU-5 tumor volume ([2]; 30 mg/kg/day p.o. QD, Day 31, mean ± standard error): 256.5 ± 23.6 mm^3
SNU-5 tumor volume ([2]; 30 mg/kg/day p.o. QD, Day 35, mean ± standard error): 255.7 ± 21.1 mm^3
SNU-5 tumor volume ([2]; 30 mg/kg/day p.o. QD, Day 38, mean ± standard error): 273.4 ± 24.2 mm^3
SNU-5 tumor weight at study termination, Mean ([2]; 30 mg/kg/day): 251.2
SNU-5 tumor weight at study termination, individual animal ([2]; 30 mg/kg/day): 180 and 173 and 260 and 420 and 250 and 156 and 350 and 327 and 150 and 246
tumor regression by tumor volume analysis ([2]; 30 mg/kg/day, P<0.001): −23.9%
percent tumor weight reduction vs vehicle control ([2]; 30 mg/kg/day): 73.5%
anti-tumor activity ([2]; all three dose levels tested (3, 10, 30 mg/kg/day)): significant and dose-dependent anti-tumor activity
Luminescence of homogenized lung tissue, Mean ([3]; 30 mg/kg/day): 12740.8 counts
Luminescence of homogenized lung tissue, individual animal ([3]; 30 mg/kg/day): 3890 counts and 5270 counts and 2270 counts and 2620 counts and 17200 counts and 21300 counts and 6430 counts and 4340 counts and 65400 counts and 2230 counts and 16300 counts and 5640 counts
formation of lung metastases ([3]; 60 mg/kg/day compared to vehicle controls, p<0.02): significantly inhibits
Luminescence of homogenized lung tissue, Mean ([3]; 60 mg/kg/day, p<0.02 vs vehicle): 6672.3±1986.1 counts and 6672.3 counts
Luminescence of homogenized lung tissue, individual animal ([3]; 60 mg/kg/day): 2170 counts and 1480 counts and 2540 counts and 19300 counts and 21100 counts and 3800 counts and 16500 counts and 1440 counts and 2620 counts and 2920 counts and 5540 counts and 4860 counts and 2470 counts
change in primary A549 tumor cell growth at the site of implantation vs vehicle ([3]; 30 or 60 mg/kg/day p.o. QD, 22 days): no significant change
IC50 (c-Met [4]): < 20 nM
